#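 Step 1: Grow cells in 96-well plates. Step 2: Expose to compound for 48 hours at 5 concentrations. Step 3: Interpolate endpoints linearly; if unreached, use highest concentration. The concentration for 50% growth inhibition is given as GI50. The concentration for full growth arrest is given as TGI.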
# Assays:
# Test in all cases: NCI anticancer screen, dose series, 48 h
# [1] = tested on: 786-0 renal
# [2] = tested on: A498 renal
# [3] = tested on: A549 NSCLC
# [4] = tested on: ACHN renal
# [5] = tested on: BT-549 breast
# [6] = tested on: CAKI-1 renal
# [7] = tested on: CCRF-CEM leukemia
# [8] = tested on: COLO 205 colon
# [9] = tested on: DU-145 prostate
# [10] = tested on: EKVX NSCLC
# [11] = tested on: HCC-2998 colon
# [12] = tested on: HCT-116 colon
# [13] = tested on: HCT-15 colon
# [14] = tested on: HL-60(TB) leukemia
# [15] = tested on: HOP-62 NSCLC
# [16] = tested on: HOP-92 NSCLC
# [17] = tested on: HS 578T breast
# [18] = tested on: HT29 colon
# [19] = tested on: IGROV1 ovarian
# [20] = tested on: K-562 leukemia
# [21] = tested on: KM12 colon
# [22] = tested on: LOX IMVI melanoma
# [23] = tested on: M14 melanoma
# [24] = tested on: MALME-3M melanoma
# [25] = tested on: MCF7 breast
# [26] = tested on: MDA-MB-231 breast
# [27] = tested on: MDA-MB-435
# [28] = tested on: MOLT-4 leukemia
# [29] = tested on: NCI-H226 lung
# [30] = tested on: NCI-H23 lung
# [31] = tested on: NCI-H460 lung
# [32] = tested on: NCI-H522 lung
# [33] = tested on: NCI/ADR-RES ovarian
# [34] = tested on: OVCAR-3 ovarian
# [35] = tested on: OVCAR-4 ovarian
# [36] = tested on: OVCAR-5 ovarian
# [37] = tested on: OVCAR-8 ovarian
# [38] = tested on: PC-3 prostate
# [39] = tested on: RPMI-8226 leukemia
# [40] = tested on: RXF 393 renal
# [41] = tested on: SF-268 CNS
# [42] = tested on: SF-295 CNS
# [43] = tested on: SF-539 CNS
# [44] = tested on: SK-MEL-2 melanoma
# [45] = tested on: SK-MEL-28 melanoma
# [46] = tested on: SK-MEL-5 melanoma
# [47] = tested on: SK-OV-3 ovarian
# [48] = tested on: SN12C renal
# [49] = tested on: SNB-19 CNS
# [50] = tested on: SNB-75 CNS
# [51] = tested on: SW-620 colon
# [52] = tested on: T-47D breast
# [53] = tested on: TK-10 renal
# [54] = tested on: U251 CNS
# [55] = tested on: UACC-257 melanoma
# [56] = tested on: UACC-62 melanoma
# [57] = tested on: UO-31 renal
compound,measurement,setting,value
O=C(NC1CCCCC1)OCc1c(COC(=O)NC2CCCCC2)c(-c2ccc(Cl)c(Cl)c2)n2c1CCC2,GI50,[1],3.26 µM
same,TGI,[1],10.7 µM
same,GI50,[2],1.59 µM
same,TGI,[2],3.32 µM
same,GI50,[3],7.47 µM
same,TGI,[3],94.2 µM
same,GI50,[4],3.04 µM
same,TGI,[4],41.6 µM
same,GI50,[5],3.53 µM
same,TGI,[5],14.2 µM
same,GI50,[6],2.35 µM
same,TGI,[6],> 100 µM
same,GI50,[7],3.21 µM
same,TGI,[7],> 100 µM
same,GI50,[8],4.2 µM
same,TGI,[8],16.6 µM
same,GI50,[9],3.72 µM
same,TGI,[9],20.9 µM
same,GI50,[10],9.79 µM
same,TGI,[10],94.4 µM
same,GI50,[11],10.5 µM
same,TGI,[11],23 µM
same,GI50,[12],3.72 µM
same,TGI,[12],15.2 µM
same,GI50,[13],5.56 µM
same,TGI,[13],43.2 µM
same,GI50,[14],2.24 µM
same,TGI,[14],> 100 µM
same,GI50,[15],4.57 µM
same,TGI,[15],21 µM
same,GI50,[16],1.94 µM
same,TGI,[16],12.5 µM
same,GI50,[17],3.72 µM
same,TGI,[17],21.4 µM
same,GI50,[18],4.97 µM
same,TGI,[18],71.4 µM
same,GI50,[19],5.62 µM
same,TGI,[19],> 100 µM
same,GI50,[20],4.83 µM
same,TGI,[20],> 100 µM
same,GI50,[21],11.9 µM
same,TGI,[21],29.3 µM
same,GI50,[22],2.98 µM
same,TGI,[22],16.4 µM
same,GI50,[23],4.17 µM
same,TGI,[23],16.3 µM
same,GI50,[24],5.92 µM
same,TGI,[24],22.7 µM
same,GI50,[25],3.83 µM
same,TGI,[25],27.9 µM
same,GI50,[26],5.6 µM
same,TGI,[26],50.7 µM
same,GI50,[27],8.23 µM
same,TGI,[27],28.8 µM
same,GI50,[28],2.6 µM
same,TGI,[28],> 100 µM
same,GI50,[29],2.51 µM
same,TGI,[29],22.4 µM
same,GI50,[30],4.35 µM
same,TGI,[30],21 µM
same,GI50,[31],1.19 µM
same,TGI,[31],14.1 µM
same,GI50,[32],3.01 µM
same,TGI,[32],11.8 µM
same,GI50,[33],4.24 µM
same,TGI,[33],18.6 µM
same,GI50,[34],5.32 µM
same,TGI,[34],22.3 µM
same,GI50,[35],3.42 µM
same,TGI,[35],62.9 µM
same,GI50,[36],5.19 µM
same,TGI,[36],44.3 µM
same,GI50,[37],4.3 µM
same,TGI,[37],32.3 µM
same,GI50,[38],6.05 µM
same,TGI,[38],29.3 µM
same,GI50,[39],4.55 µM
same,TGI,[39],29 µM
same,GI50,[40],2.87 µM
same,TGI,[40],9.36 µM
same,GI50,[41],3.79 µM
same,TGI,[41],21.3 µM
same,GI50,[42],3.38 µM
same,TGI,[42],29.1 µM
same,GI50,[43],3.06 µM
same,TGI,[43],13.7 µM
same,GI50,[44],3.72 µM
same,TGI,[44],12.7 µM
same,GI50,[45],14.2 µM
same,TGI,[45],45.3 µM
same,GI50,[46],7.06 µM
same,TGI,[46],20.8 µM
same,GI50,[47],2.58 µM
same,TGI,[47],11.8 µM
same,GI50,[48],3.58 µM
same,TGI,[48],> 100 µM
same,GI50,[49],5.79 µM
same,TGI,[49],47.6 µM
same,GI50,[50],4.19 µM
same,TGI,[50],25 µM
same,GI50,[51],3.89 µM
same,TGI,[51],22.6 µM
same,GI50,[52],3.83 µM
same,TGI,[52],19.5 µM
same,GI50,[53],3.72 µM
same,TGI,[53],31.7 µM
same,GI50,[54],4.43 µM
same,TGI,[54],22.8 µM
same,GI50,[55],10.8 µM
same,TGI,[55],37.4 µM
same,GI50,[56],2.37 µM
same,TGI,[56],12.9 µM
same,GI50,[57],3.17 µM
same,TGI,[57],16.2 µM
CCOC(=O)CCC(NC(=O)c1ccc(Sc2nc3cc(N)cc(N)c3nc2-c2ccccc2)cc1)C(=O)OCC (configuration not stated),GI50,[1],4.72 µM
same,TGI,[1],> 100 µM
same,GI50,[3],2.9 µM
same,TGI,[3],> 100 µM
same,GI50,[4],1.3 µM
same,TGI,[4],33.9 µM
same,GI50,[5],2.3 µM
same,TGI,[5],36.9 µM
same,GI50,[6],2.03 µM
same,TGI,[6],> 41.6 µM
same,GI50,[7],1.31 µM
same,TGI,[7],> 100 µM
same,GI50,[8],2.71 µM
same,GI50,[9],38.2 µM
same,TGI,[9],> 100 µM
same,GI50,[10],13.7 µM
same,TGI,[10],> 77.6 µM
same,GI50,[11],4.73 µM
same,TGI,[11],17 µM
same,GI50,[12],1.3 µM
same,TGI,[12],> 100 µM
same,GI50,[13],1.8 µM
same,TGI,[13],> 65.6 µM
same,GI50,[14],0.298 µM
same,TGI,[14],> 100 µM
same,GI50,[15],2.23 µM
same,TGI,[15],47.7 µM
same,GI50,[16],2.74 µM
same,TGI,[16],46.2 µM
same,GI50,[17],10.2 µM
same,TGI,[17],> 87.1 µM
same,GI50,[18],0.755 µM
same,TGI,[18],> 100 µM
same,GI50,[19],6.91 µM
same,TGI,[19],> 100 µM
same,TGI,[20],24.5 µM
same,GI50,[21],2.19 µM
same,TGI,[21],> 86.6 µM
same,GI50,[22],0.48 µM
same,TGI,[22],> 29.3 µM
same,GI50,[23],3.34 µM
same,GI50,[24],19.6 µM
same,TGI,[24],37.2 µM
same,GI50,[25],0.626 µM
same,TGI,[25],> 100 µM
same,GI50,[26],7.96 µM
same,TGI,[26],35.1 µM
same,GI50,[27],11.1 µM
same,TGI,[27],33.5 µM
same,GI50,[28],0.726 µM
same,TGI,[28],> 100 µM
same,GI50,[29],0.97 µM
same,TGI,[29],> 65.9 µM
same,GI50,[30],2.29 µM
same,TGI,[30],> 58 µM
same,GI50,[31],3.05 µM
same,TGI,[31],> 100 µM
same,GI50,[32],2.76 µM
same,GI50,[33],21.6 µM
same,TGI,[33],> 100 µM
same,GI50,[34],0.73 µM
same,TGI,[34],2.88 µM
same,GI50,[35],2.28 µM
same,TGI,[35],> 73.2 µM
same,GI50,[36],60.5 µM
same,TGI,[36],> 100 µM
same,GI50,[37],2.78 µM
same,TGI,[37],> 63 µM
same,GI50,[38],2.61 µM
same,TGI,[38],> 100 µM
same,GI50,[39],1.62 µM
same,TGI,[39],> 89.8 µM
same,GI50,[40],3 µM
same,TGI,[40],19.4 µM
same,GI50,[41],2.18 µM
same,TGI,[41],> 66.6 µM
same,GI50,[42],0.939 µM
same,TGI,[42],> 36.8 µM
same,GI50,[43],0.0926 µM
same,TGI,[43],14.7 µM
same,GI50,[44],4.22 µM
same,TGI,[44],72.4 µM
same,GI50,[45],0.884 µM
same,TGI,[45],32 µM
same,GI50,[46],1.71 µM
same,TGI,[46],5.55 µM
same,GI50,[47],2.83 µM
same,TGI,[47],53 µM
same,GI50,[48],17.7 µM
same,TGI,[48],44.5 µM
same,GI50,[49],4.77 µM
same,TGI,[49],> 100 µM
same,GI50,[50],32.2 µM
same,TGI,[50],63.8 µM
same,GI50,[51],2.38 µM
same,TGI,[51],> 100 µM
same,GI50,[52],> 53.9 µM
same,TGI,[52],> 100 µM
same,GI50,[53],22.4 µM
same,TGI,[53],> 100 µM
same,GI50,[54],1.02 µM
same,TGI,[54],> 40.6 µM
same,GI50,[55],> 41.4 µM
same,TGI,[55],> 63.6 µM
same,GI50,[56],1.03 µM
same,TGI,[56],> 62.4 µM
same,GI50,[57],4.78 µM
same,TGI,[57],> 100 µM

# Source: PubChem BioAssay (NCI)
